Reference: patent publication US6673812B1, “Preventives/remedies for glaucoma” (Senju Pharmaceutical Co., Ltd., priority 1998, dated 2004)

Tested on: Japanese white rabbits
Experiment: Effect on normal intraocular pressure of white rabbits
Type: in vivo, rabbit
Conditions: 20 μl eye drop, 0.1% or 0.03%
Description: In this experiment, 0.1% eye drop and 0.03% eye drop containing Compound A (each prepared in Example 2 and Example 3), 0.03% eye drop containing Compound B (prepared in Example 4), 0.1% eye drop and 0.03% eye drop containing Compound C (each prepared in Example 5 and Example 6) and 0.03% eye drop containing Compound D (prepared in Example 7) were used.
Japanese white rabbits (body weight about 2 kg) purchased from Japan Laboratory Animals, INC. were used. These animals were bred in a breeding chamber set to temperature 23±3° C., humidity 55±10% and fed on limited amount of 100 g a day of a solid feed (Labo R Stock, Nihon-Nosan Kogyo K.K.). They were allowed free access to tap water. The rabbits were placed in a holding box for 5 hr a day for acclimation from 2 days prior to the test. […] After measurement of the initial value of the intraocular pressure, various eye drops (20 μl) were instilled into one eye, and a base, which was one of various eye drops except the test drug, was instilled into the other eye in the same manner and taken as the control eye.
The intraocular pressure was measured with time at 30, 60, 90, 120, 150 and 180 min after instillation and thereafter at one hour intervals until the intraocular pressure returned to the initial value, and the duration of the effect was examined.

SMILES: C[C@@H](N)c1ccc(C(=O)Nc2ccnc3[nH]ccc23)cc1.Cl.Cl.O [Compound D, (R)-(+)-N-(1H-pyrrolo[2,3-b]pyridin-4-yl)-4-(1-aminoethyl)benzamide 2HCl 1H2O]
- character (onset, duration) of intraocular pressure lowering effect: marked and long lasting intraocular pressure lowering effect
